Tests used:
JAK3 = JAK3 (Homo sapiens (Human), UniProt P52333); assay: Jak Biochemical HTRF Assay (JAK3); settings: recombinant GST-tagged catalytic domain, [ATP] 2.9 μM
Procedure: (§1) Biological Assays Jak Biochemical HTRF Assay Protocol
The ability of compounds to inhibit the activity of JAK1, JAK2, JAK3, and Tyk2 was measured using a recombinant purified GST-tagged catalytic domain for each enzyme (Invitrogen JAK1 #M4290, JAK2 #M4290, JAK3 #M4290, Tyk2 #M4290) in an HTRF format biochemical assay. […] Subsequent reagent additions employed an Agilent Bravo. […] After equilibration, 2 μL of 10×ATP in 1× assay buffer was added to initiate the kinase reaction and the plates were shaken and then incubated at room temperature for 120 minutes. At the end of the incubation, 20 μL of 2× stop buffer (streptavidin-Dylight 650 (Thermo #84547B100 mL), Eu-tagged pY20 antibody (Perkin Elmer #AD0067), EDTA, HEPES, and Triton) was added to quench the reaction. […] After normalization to untreated controls, the percent inhibition of the HTRF signal at each compound concentration was calculated. The plot of percent inhibition versus the log of compound concentration was fit with a 4-parameter dose response equation to calculate IC50 values.

JAK2 = JAK2 (Homo sapiens (Human), UniProt O60674); assay: Jak Biochemical HTRF Assay (JAK2); settings: recombinant GST-tagged catalytic domain, [ATP] 8.5 μM
JAK2, sequence (O60674 849-1124): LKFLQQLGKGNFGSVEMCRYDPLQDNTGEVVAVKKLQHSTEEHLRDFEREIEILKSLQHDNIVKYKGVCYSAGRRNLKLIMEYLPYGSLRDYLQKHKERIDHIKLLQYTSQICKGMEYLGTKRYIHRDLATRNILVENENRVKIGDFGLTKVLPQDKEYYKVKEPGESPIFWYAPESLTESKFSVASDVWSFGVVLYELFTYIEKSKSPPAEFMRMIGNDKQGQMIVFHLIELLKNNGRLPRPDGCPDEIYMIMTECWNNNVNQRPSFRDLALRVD
Procedure: as §1
The ability of compounds to inhibit the activity of JAK1, JAK2, JAK3, and Tyk2 was measured using a recombinant purified GST-tagged catalytic domain for each enzyme (Invitrogen JAK1 #M4290, JAK2 #M4290, JAK3 #M4290, Tyk2 #M4290) in an HTRF format biochemical assay. […] The basic assay protocol is as follows: First, 250 nL of diluted compounds in DMSO were dispensed into the wells of a dry 384-well Black plate (Greiner #781076) using a Labcyte Echo 555 acoustic dispenser. Subsequent reagent additions employed an Agilent Bravo. Next, 18 μL of 1.11× enzyme and 1.11× substrate in 1× assay buffer (Invitrogen kinase buffer # PV3189, 2 mM DTT, 0.05% BSA) were added to the wells and shaken and then preincubated for 30 minutes at room temperature to allow compound binding to equilibrate. After equilibration, 2 μL of 10×ATP in 1× assay buffer was added to initiate the kinase reaction and the plates were shaken and then incubated at room temperature for 120 minutes. At the end of the incubation, 20 μL of 2× stop buffer (streptavidin-Dylight 650 (Thermo #84547B100 mL), Eu-tagged pY20 antibody (Perkin Elmer #AD0067), EDTA, HEPES, and Triton) was added to quench the reaction. Plates were shaken and centrifuged and then incubated 60 minutes at room temperature and then read on a Perkin Elmer Envision (λex=337 nm, λem=665 and 615 nm, TRF delay time=20 μs). HTRF signal=10,000*665 nm reading 615 nm reading. After normalization to untreated controls, the percent inhibition of the HTRF signal at each compound concentration was calculated. The plot of percent inhibition versus the log of compound concentration was fit with a 4-parameter dose response equation to calculate IC50 values.

JAK3, sequence (P52333 822-1111): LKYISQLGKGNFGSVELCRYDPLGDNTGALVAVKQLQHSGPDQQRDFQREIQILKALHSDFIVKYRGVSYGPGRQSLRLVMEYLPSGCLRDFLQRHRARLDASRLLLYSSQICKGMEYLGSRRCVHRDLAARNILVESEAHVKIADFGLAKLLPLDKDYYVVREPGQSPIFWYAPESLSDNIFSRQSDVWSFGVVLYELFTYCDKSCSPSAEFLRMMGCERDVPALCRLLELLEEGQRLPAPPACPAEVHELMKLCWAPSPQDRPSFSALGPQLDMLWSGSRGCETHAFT

IC50 (JAK3; given as range class) [nM]	IC50 (JAK2; given as range class) [nM]	IC50 (JAK3) [nM]	IC50 (JAK2) [nM]	SMILES
10 to 500	> 500	–	–	CCOC(=O)c1c[nH]c2ncnc(-c3cccc(-c4nc(Cl)ns4)c3)c12 [Example 7-2, ethyl 4-(3-(3-chloro-1,2,4-thiadiazol-5-yl)phenyl)-7H-pyrrolo[2,3-d]pyrimidine-5-carboxylate]
10 to 500	> 500	–	–	CCOC(=O)c1c[nH]c2ncnc(C3=CCCOC3)c12 [Example 1-88, ethyl 4-(5,6-dihydro-2H-pyran-3-yl)-7H-pyrrolo[2,3-d]pyrimidine-5-carboxylate]
–	–	0.13	> 1500	C=CC(=O)N(C)c1cccc(-c2ncnc3[nH]cc(C(=O)OCC)c23)c1 [Example 12-1, Ethyl 4-(3-(N-methylacrylamido)phenyl)-7H-pyrrolo[2,3-d]pyrimidine-5-carboxylate]
–	–	0.049	> 1500	C=C(C)C(=O)Nc1cc(-c2ncnc3[nH]cc(C(=O)OCC)c23)ccn1 [Example 4-35, ethyl 4-{2-[(2-methylacryloyl)amino]pyridin-4-yl}-7H-pyrrolo[2,3-d]pyrimidine-5-carboxylate]
10 to 500	> 500	–	–	CCOC(=O)c1c[nH]c2ncnc(-c3cccc(C(C)(C)O)c3)c12 [Example 1-105, ethyl 4-[3-(1-hydroxy-1-methylethyl)phenyl]-7H-pyrrolo[2,3-d]pyrimidine-5-carboxylate]
10 to 500	> 500	–	–	CCOC(=O)c1c[nH]c2ncnc(-c3cccc(Nc4nccnc4C#N)c3)c12 [Example 6-2, Ethyl-4-{3-[(3-cyanopyrazin-2-yl)amino]phenyl}-7H-pyrrolo[2,3-d]pyrimidine-5-carboxylate]
10 to 500	> 500	–	–	CCOC(=O)c1c[nH]c2ncnc(-c3ccc4c(c3)C(=O)NC4)c12 [Example 1-75, ethyl 4-(3-oxo-2,3-dihydro-1H-isoindol-5-yl)-7H-pyrrolo[2,3-d]pyrimidine-5-carboxylate]
–	–	0.068	> 1500	C=C(C)C(=O)Nc1cc(C#N)cc(-c2ncnc3[nH]cc(C(=O)OCC)c23)c1 [Example 4-24, ethyl 4-{3-cyano-5-[(2-methylacryloyl)amino]phenyl}-7H-pyrrolo[2,3-d]pyrimidine-5-carboxylate]
10 to 500	10 to 500	–	–	CCOC(=O)c1c[nH]c2ncnc(-c3cccc(OC(F)(F)F)c3)c12 [Example 1-26, ethyl 4-[3-(trifluoromethoxy)phenyl]-7H-pyrrolo[2,3-d]pyrimidine-5-carboxylate]
–	–	4	61	CCOC(=O)c1c[nH]c2ncnc(-c3cc4ccccc4o3)c12 [Example 1-54, ethyl 4-(1-benzofuran-2-yl)-7H-pyrrolo[2,3-d]pyrimidine-5-carboxylate]
10 to 500	> 500	–	–	CCOC(=O)c1c[nH]c2ncnc(-c3cccc(N(C)S(C)(=O)=O)c3)c12 [Example 1-102, ethyl 4-{3-[methyl(methylsulfonyl)amino]phenyl}-7H-pyrrolo[2,3-d]pyrimidine-5-carboxylate]
10 to 500	> 500	–	–	CCOC(=O)c1c[nH]c2ncnc(-c3ccncc3)c12 [Example 1-14, ethyl 4-pyridin-4-yl-7H-pyrrolo[2,3-d]pyrimidine-5-carboxylate]
10 to 500	> 500	–	–	CCOC(=O)c1c[nH]c2ncnc(-c3cccc4ccsc34)c12 [Example 1-61, ethyl 4-(1-benzothiophen-7-yl)-7H-pyrrolo[2,3-d]pyrimidine-5-carboxylate]
–	–	0.013	> 1500	C=C(F)C(=O)Nc1cc(-c2ncnc3[nH]cc(C(=O)OCC)c23)ccc1F [Example 5-10, ethyl 4-{4-fluoro-3-[(2-fluoroacryloyl)amino]phenyl}-7H-pyrrolo[2,3-d]pyrimidine-5-carboxylate]
10 to 500	> 500	–	–	CCOC(=O)c1c[nH]c2ncnc(-c3coc4ccccc34)c12 [Example 1-63, ethyl 4-(1-benzofuran-3-yl)-7H-pyrrolo[2,3-d]pyrimidine-5-carboxylate]
–	–	0.025	> 1500	C=C(COC)C(=O)Nc1cccc(-c2ncnc3[nH]cc(C(=O)OCC)c23)c1 [Example 5-45, ethyl 4-(3-{[2-(methoxymethyl)acryloyl]amino}phenyl)-7H-pyrrolo[2,3-d]pyrimidine-5-carboxylate]
10 to 500	> 500	–	–	CCOC(=O)c1c[nH]c2ncnc(-c3cccc(NC(=O)/C=C\c4ccccc4OC)c3)c12 [Example 5-23, ethyl 4-(3-{[(2Z)-3-(2-methoxyphenyl)prop-2-enoyl]amino}phenyl)-7H-pyrrolo[2,3-d]pyrimidine-5-carboxylate]
10 to 500	> 500	–	–	CCOC(=O)c1c[nH]c2ncnc(-c3ccc(N4CCN(C)CC4)nc3)c12 [Example 1-87, ethyl 4-[6-(4-methylpiperazin-1-yl)pyridin-3-yl]-7H-pyrrolo[2,3-d]pyrimidine-5-carboxylate]
–	–	1.4	71	COc1ccc(F)cc1-c1c[nH]c2ncnc(-c3ccccc3)c12 [Example 33-3, 5-(5-fluoro-2-methoxyphenyl)-4-phenyl-7H-pyrrolo[2,3-d]pyrimidine]
10 to 500	10 to 500	–	–	CCOC(=O)c1c[nH]c2ncnc(-c3ccc(C(C)(C)O)cc3)c12 [Example 1-107, ethyl 4-[4-(1-hydroxy-1-methylethyl)phenyl]-7H-pyrrolo[2,3-d]pyrimidine-5-carboxylate]
10 to 500	> 500	–	–	CCOC(=O)c1c[nH]c2ncnc(-c3cccc(NC(=O)/C(F)=C/c4ccccc4)c3)c12 [Example 5-26, ethyl 4-(3-{[(2Z)-2-fluoro-3-phenylprop-2-enoyl]amino}phenyl)-7H-pyrrolo[2,3-d]pyrimidine-5-carboxylate]
–	–	0.07	> 1500	C=C(C)C(=O)Nc1cc(-c2ncnc3[nH]cc(C(=O)OCC)c23)ccc1F [Example 4-16, ethyl 4-{4-fluoro-3-[(2-methylacryloyl)amino]phenyl}-7H-pyrrolo[2,3-d]pyrimidine-5-carboxylate]
–	–	8.8	186	CCOC(=O)c1c[nH]c2ncnc(-c3ccc4ccccc4c3)c12 [Example 1-40, ethyl 4-naphthalen-2-yl-7H-pyrrolo[2,3-d]pyrimidine-5-carboxylate]
10 to 500	> 500	–	–	CCOC(=O)c1c[nH]c2ncnc(-c3cccc(NC(=O)C4=COCCO4)c3)c12 [Example 5-13, ethyl 4-{3-[(5,6-dihydro-1,4-dioxin-2-ylcarbonyl)amino]phenyl}-7H-pyrrolo[2,3-d]pyrimidine-5-carboxylate]
10 to 500	> 500	–	–	CCOC(=O)c1c[nH]c2ncnc(-c3cccc(NC(=O)C4=CCCCC4)c3)c12 [Example 5-35, ethyl 4-{3-[(cyclohex-1-en-1-ylcarbonyl)amino]phenyl}-7H-pyrrolo[2,3-d]pyrimidine-5-carboxylate]
10 to 500	> 500	–	–	CCOC(=O)c1c[nH]c2ncnc(-c3cccc(-c4nc(Br)ns4)c3)c12 [Example 7-3, ethyl 4-(3-(3-bromo-1,2,4-thiadiazol-5-yl)phenyl)-7H-pyrrolo[2,3-d]pyrimidine-5-carboxylate]
–	–	0.96	> 1500	C=C(C)C(=O)Nc1cccc(-c2ncnc3[nH]cc(-c4ccccc4F)c23)c1 [Example 20-3, N-{3-[5-(2-fluorophenyl)-7H-pyrrolo[2,3-d]pyrimidin-4-yl]phenyl}-2-methylprop-2-enamide]
–	–	0.04	790	C=CC(=O)Nc1cccc(-c2ncnc3[nH]cc(C(=O)OCC)c23)c1 [Example 4-5, ethyl 4-[3-(acryloylamino)phenyl]-7H-pyrrolo[2,3-d]pyrimidine-5-carboxylate]
10 to 500	> 500	–	–	CCOC(=O)c1c[nH]c2ncnc(-c3ccccc3N)c12 [Example 1-55, ethyl 4-(2-aminophenyl)-7H-pyrrolo[2,3-d]pyrimidine-5-carboxylate]
